As usually defined, the IC90 is the concentration at which the effect reaches the 90% level.

The test system of the first assay is SU-DHL-4 cells. Kind of assay: Inhibitory effect on cell viability in SU-DHL-4 cell line (Test Example 1). Type of assay: cell-based, human. To be noted: Homo sapiens; SU-DHL-4 cells, 72 hours, Cell Counting Kit-8; concentration showing 90% inhibition of cell viability; read-out: SU-DHL-4 Cell Viability Inhibition Rate IC90. The method, then: SU-DHL-4 cells (Code No. ACC 495, Deutsche Sammlung von Mikroorganismen and Zellkulturen GmbH; DSMZ) were cultured at 37° C. using a carbon dioxide incubator (95% air, 5% CO2) in RPMI1640 medium (Code No. 11875-093, Thermo Fisher Scientific) in which inactivated fetal bovine serum (FBS: Code No. 10099-148, Thermo Fisher Scientific) in an amount to give a final concentration of 10 vol % and penicillin/streptomycin solution (PS: […] The cells were passaged twice a week at a volume of 20-40 mL so as to maintain a cell concentration of 1×10^6 cells/mL or less. […] After seeding, the cells were precultured at 37° C. in a carbon dioxide gas incubator for 18 to 25 hours. […] At this time, the final concentration of DMSO was adjusted to be 0.1 vol %. After adding the test compound, the cells were cultured at 37° C. in a carbon dioxide gas incubator for 72 hours. Next, 0.020 mL of Cell Counting Kit-8 (Code No. CK04, DOJINDO) solution diluted 2-fold or 4-fold with phosphate buffered saline (PBS) was added to each well. Color reaction was carried out in a carbon dioxide gas incubator at 37° C. for 2 to 3 hours, and the absorbance at a wavelength of 450 nm was measured using SpectraMax 340PC (Molecular Devices). […] Absorbance of a well containing test compound • B: Absorbance of a well without addition of cells • C: Absorbance of a well without addition of test compound
Turning to `CCC(=O)N1c2ccccc2[C@H](Nc2ccc(-n3cc(CNC(=O)c4cccc(Oc5ccccc5-c5cn(C)c(=O)cc5OC)c4)nn3)cc2)C[C@@H]1C` [Compound 17d, 3-(2-(4-Methoxy-1-methyl-6-oxo-1,6-dihydropyridin-3-yl)phenoxy)-N-((1-(4-(((2S,4R)-2-methyl-1-propionyl-1,2,3,4-tetrahydroquinolin-4-yl)amino)phenyl)-1H-1,2,3-triazol-4-yl)methyl)benzamide], the IC90 amounted to 0.13 nM.

Consider `CCC(=O)N1c2ccccc2[C@H](Nc2ccc(NC(=O)CCCC(=O)NC34CC(NCc5cc(O)cc(-c6c(C)noc6C)c5)(C3)C4)cc2)C[C@@H]1C` [Compound 16i, N^1-(3-((3-(3,5-Dimethylisoxazol-4-yl)-5-hydroxybenzyl)amino)bicyclo[1.1.1]pentan-1-yl)-N5-(4-(((2S,4R)-2-methyl-1-propionyl-1,2,3,4-tetrahydroquinolin-4-yl)amino)phenyl)glutaramide], for which the IC90 came to 7.84 nM.

As for `CCC(=O)N1c2ccccc2[C@H](Nc2ccc(NC(=O)CCCC(=O)Nc3ccc(OCCN4CCN(C)C(=O)[C@H]4C)cc3)cc2)C[C@@H]1C` [Compound 16e, N^1-(4-(2-((R)-2,4-Dimethyl-3-oxopiperazin-1-yl)ethoxy)phenyl)-N5-(4-(((2S,4R)-2-methyl-1-propionyl-1,2,3,4-tetrahydroquinolin-4-yl)amino)phenyl)glutaramide], the IC90 worked out at 5.97 nM.

As to `CCC(=O)N1c2ccccc2[C@H](Nc2ccc(C(=O)NCc3nnc(C4CCN(Cc5cc(O)cc(-c6c(C)noc6C)c5)CC4)o3)cc2)C[C@@H]1C` [Compound 17m, N-((5-(1-(3-(3,5-Dimethylisoxazol-4-yl)-5-hydroxybenzyl)piperidin-4-yl)-1,3,4-oxadiazol-2-yl)methyl)-4-(((2S,4R)-2-methyl-1-propionyl-1,2,3,4-tetrahydroquinolin-4-yl)amino)benzamide], the IC90 is 74.1 nM.

`CCC(=O)N1c2ccccc2[C@H](Nc2ccc(NC(=O)NCC(=O)NC3CCN(Cc4cc(O)cc(-c5c(C)noc5C)c4)CC3)cc2)C[C@@H]1C` [Compound 17j, N-(1-(3-(3,5-Dimethylisoxazol-4-yl)-5-hydroxybenzyl)piperidin-4-yl)-2-(3-(4-(((2S,4R)-2-methyl-1-propionyl-1,2,3,4-tetrahydroquinolin-4-yl)amino)phenyl)ureido)acetamide]: the IC90 amounted to 29 nM.

The assay is the same for the next values; noted with them: SU-DHL-4 cells, 72 hours, Cell Counting Kit-8; concentration showing 90% inhibition of cell viability; read-out: SU-DHL-4 Cell Viability Inhibition Rate IC90.
`CCC(=O)N1c2ccccc2[C@H](Nc2ccc(C(=O)NCC(=O)CNC(=O)C3CCC(N[C@@H]4C[C@H](C)N(C(=O)CC)c5ccccc54)CC3)cc2)C[C@@H]1C` (relative stereo) [Compound 7r, 4-(((2S,4R)-2-Methyl-1-propionyl-1,2,3,4-tetrahydroquinolin-4-yl)amino)-N-(3-((1R,4r)-4-(((2S*,4R*)-2-methyl-1-propionyl-1,2,3,4-tetrahydroquinolin-4-yl)amino)cyclohexane-1-carboxamide)-2-oxopropyl)benzamide]: the IC90 was found to be 0.38 nM.

Take `CCC(=O)N1c2ccccc2[C@H](Nc2ccc(C(=O)NC3CCN(C(=O)c4ccc(C5=N[C@@H](CC(=O)OC(C)(C)C)c6nnc(C)n6-c6sc(C)c(C)c65)cc4)CC3)cc2)C[C@@H]1C` [Compound 13j, tert-Butyl 2-((S)-2,3,9-trimethyl-4-(4-(4-(4-(((2S,4R)-2-methyl-1-propionyl-1,2,3,4-tetrahydroquinolin-4-yl)amino)benzamide)piperidine-1-carbonyl)phenyl)-6H-thieno[3,2-f][1,2,4]triazolo[4,3-a][1,4]diazepin-6-yl)acetate]: the IC90 stood at 0.31 nM.

`CCC(=O)N1c2ccccc2[C@H](Nc2ccc(C(=O)NCCCNC(=O)c3ccc(C4=N[C@@H](CC(=O)N5CCN(CCO)CC5)c5nnc(C)n5-c5sc(C)c(C)c54)cc3)cc2)C[C@@H]1C` [Compound 13f, 4-((S)-6-(2-(4-(2-Hydroxyethyl)piperazin-1-yl)-2-oxoethyl)-2,3,9-trimethyl-6H-thieno[3,2-f][1,2,4]triazolo[4,3-a][1,4]diazepin-4-yl)-N-(3-(4-(((2S,4R)-2-methyl-1-propionyl-1,2,3,4-tetrahydroquinolin-4-yl)amino)benzamide)propyl)benzamide]: the IC90 is 11.6 nM.

`CCC(=O)N1c2ccccc2[C@H](Nc2ccc(NC(=O)COCC(=O)NC3CCC(N[C@@H]4C[C@H](C)N(C(=O)CC)c5ccccc54)CC3)cc2)C[C@@H]1C` (stereo partly drawn) [Compound 8b, N-((1R,4r)-4-(((2S,4R)-2-Methyl-1-propionyl-1,2,3,4-tetrahydroquinolin-4-yl)amino)cyclohexyl)-2-(2-((4-(((2S,4R)-2-methyl-1-propionyl-1,2,3,4-tetrahydroquinolin-4-yl)amino)phenyl)amino)-2-oxyethoxy)acetamide]: the IC90 is 13.9 nM.

Take `CCC(=O)N1c2ccccc2[C@H](Nc2ccc(C(=O)NCCCNC(=O)C3CCC(N[C@@H]4C[C@H](C)N(C(=O)CC)c5ccccc54)CC3)cc2)C[C@@H]1C` (relative stereo) [Compound 7m, 4-(((2S,4R)-2-Methyl-1-propionyl-1,2,3,4-tetrahydroquinolin-4-yl)amino)-N-(3-((1R,4r)-4-(((2S*,4R*)-2-methyl-1-propionyl-1,2,3,4-tetrahydroquinolin-4-yl)amino)cyclohexane-1-carboxamide)propyl)benzamide]: the IC90 amounted to 20.3 nM.

With `CCC(=O)N1c2ccccc2[C@H](Nc2ccc(C(=O)NCCCNC(=O)c3ccc(Cn4c(C(=O)OC)cc5c4CCCC5=O)cc3)cc2)C[C@@H]1C` [Compound 15g, Methyl 1-(4-((3-(4-(((2S,4R)-2-methyl-1-propionyl-1,2,3,4-tetrahydroquinolin-4-yl)amino)benzamide)propyl)carbamoyl)benzyl)-4-oxo-4,5,6,7-tetrahydro-1H-indole-2-carboxylate], the IC90 came to 5.03 nM.

Consider `CCC(=O)N1c2ccccc2[C@H](Nc2ccc(NC(=O)CNC(=O)O[C@H]3CC[C@H](N[C@@H]4C[C@H](C)N(C(=O)CC)c5ccccc54)CC3)cc2)C[C@@H]1C` (relative stereo) [Compound 7e, (1R,4R)-4-(((2S*,4R*)-2-Methyl-1-propionyl-1,2,3,4-tetrahydroquinolin-4-yl)amino)cyclohexyl (2-((4-(((2S,4R)-2-methyl-1-propionyl-1,2,3,4-tetrahydroquinolin-4-yl)amino)phenyl)amino)-2-oxoethyl)carbamate], for which the IC90 was 20.4 nM.

Turning to `CCC(=O)N1c2ccccc2[C@H](Nc2ccc(-c3nc(CNC(=O)C4CCC(N[C@@H]5C[C@H](C)N(C(=O)CC)c6ccccc65)CC4)no3)cc2)C[C@@H]1C` (relative stereo) [Compound 8k, (1R,4R)-4-(((2S*,4R*)-2-Methyl-1-propionyl-1,2,3,4-tetrahydroquinolin-4-yl)amino)-N-((5-(4-(((2S,4R)-2-methyl-1-propionyl-1,2,3,4-tetrahydroquinolin-4-yl)amino)phenyl)-1,2,4-oxadiazol-3-yl)methyl)cyclohexane-1-carboxamide], the IC90 was 0.26 nM.

Take `CCC(=O)N1c2ccccc2[C@H](NC2CCC(NC(=O)C#CCNC(=O)c3ccc(C4=NCc5nnc(C)n5-c5sc(C)c(C)c54)cc3)CC2)C[C@@H]1C` (relative stereo) [Compound 14c, N-(4-(((1R,4r)-4-(((2S*,4R*)-2-Methyl-1-propionyl-1,2,3,4-tetrahydroquinolin-4-yl)amino)cyclohexyl)amino)-4-oxobut-2-yn-1-yl)-4-(2,3,9-trimethyl-6H-thieno[3,2-f][1,2,4]triazolo[4,3-a][1,4]diazepin-4-yl)benzamide]: the IC90 came to 0.34 nM.

Take `CCC(=O)N1c2ccccc2[C@H](Nc2ccc(NC(=O)CCCC(=O)NC3CCC(Cn4c(CC)cc5c4CCCC5=O)CC3)cc2)C[C@@H]1C` (stereo partly drawn) [Compound 17b, N^1-((1r,4r)-4-((2-Ethyl-4-oxo-4,5,6,7-tetrahydro-1H-indol-1-yl)methyl)cyclohexyl)-N5-(4-(((2S,4R)-2-methyl-1-propionyl-1,2,3,4-tetrahydroquinolin-4-yl)amino)phenyl)glutaramide]: the IC90 was 1.74 nM.

Consider `CCC(=O)N1c2ccccc2[C@H](Nc2ccc(C(=O)N3C[C@H]4C[C@@H]3CN4C(=O)[C@H]3CC[C@H](N[C@@H]4C[C@H](C)N(C(=O)CC)c5ccccc54)CC3)cc2)C[C@@H]1C` [Compound 8p, 1-((2S,4R)-2-Methyl-4-(((1R,4R)-4-((1R,4R)-5-(4-(((2S,4R)-2-methyl-1-propionyl-1,2,3,4-tetrahydroquinolin-4-yl)amino)benzoyl)-2,5-diazabicyclo[2.2.1]heptane-2-carbonyl)cyclohexyl)amino)-3,4-dihydroquinolin-1(2H)-yl)propan-1-one], for which the IC90 turned out to be 15 nM.

Regarding `CCC(=O)N1c2ccccc2[C@H](Nc2ccc(C(=O)NCCCNC(=O)c3ccc(C4=N[C@@H](CC(=O)OCCO)c5nnc(C)n5-c5sc(C)c(C)c54)cc3)cc2)C[C@@H]1C` [Compound 13g, 2-Hydroxyethyl 2-((S)-2,3,9-trimethyl-4-(4-((3-(4-(((2S,4R)-2-methyl-1-propionyl-1,2,3,4-tetrahydroquinolin-4-yl)amino)benzamide)propyl)carbamoyl)phenyl)-6H-thieno[3,2-f][1,2,4]triazolo[4,3-a][1,4]diazepin-6-yl)acetate], the IC90 worked out at 1.7 nM.

Source of the values: patent publication US20220378923A1, “BET DEGRADER” (KYOWA KIRIN CO., LTD., priority 2019, published 2022).
